Like-named read-outs stand apart in the source and are kept apart here.
Legend:
[1] = Rabbit; cited from earlier work
[2] = Rat; cited from earlier work
[3] = Ox; cited from earlier work
[4] = tested on: striatal dopamine content; assay: 6-OHDA lesion rat model, striatal dopamine content; format: in vivo, Sprague-Dawley rats; settings: treatment before 6-OHDA lesioning
Procedure: Male Sprague-Dawley rats with starting weights 225±25 g, were housed in groups of 3 with free access to food and water, under controlled temperature (21° C.±1° C.) and a 12 hour light/dark cycle (light on 07.00 hrs). All scientific procedures were carried out with the approval of the Home Office, U.K. Rats were administered, by gavage, 70 mg/kg of ergothioneine or vehicle (sterile distilled water) daily for 4 days (n=6 per group). On the 4th day, 1 hr after L-ergothioneine or vehicle administration, rats were anaesthetized with small animal Immobilon® (0.04 ml/rat, i.m.), and 6-OHDA (5 μg dissolved in 4 μl of 0.1% ascorbic acid/saline solution) was injected onto median forebrain bundle (stereotactic co-ordinates: 2.2 mm anterior, +1.5 lateral from bregma and −7.9 ventral to dura with ear bars 5 mm below incisor bars (Datla et al. (2001) Neuroreport 12:3871, which reference is herein specifically incorporated by reference in its entirety). One week after 6-OHDA lesioning, rats were killed by cervical dislocation and the brains were dissected out immediately. A coronal section was made at the level of hypothalamus and fore brain, and hind brain parts were separated. […] Images of TH positive cells (TH+ cells) were captured by a Xillix CCD digital camera and counted automatically (Image Proplus, Datacell, U.K.). […]

[5] = Fowl; cited from earlier work
PC12 cells [6] = assay: LDH release assay, Aβ25-35-treated PC12 cells; format: cell-based, Rat; settings: 25 μM Aβ25-35-treated PC12 cells
Procedure: PC12 cells were maintained in DMEM supplemented with 10% heat-inactivated horse serum and 5% fetal bovine serum at 37° C. in a humidified atmosphere of 10% CO2/90% air. All cells were cultured in poly-D-lysine coated culture dishes. The medium was changed every other day, and cells were plated at an appropriate density according to each experimental scale. After 24 h subculture, cells were switched to serum-free N-2 defined medium for treatment. For determination of cell viability, PC12 cells were initially plated at a density of 4×10^4 cells/300 μl in 48-well plates, and the cell viability was determined by the conventional MTT reduction and the lactate dehydrogenase (LDH) release assay as described below.
This assay measures the leakage of the soluble cytoplasmic LDH enzyme into the extracellular medium due to cell lysis. PC12 cells were plated at the same density as for the MTT assay described above. The amount of lactate was measured by monitoring the oxidation of L-lactic acid by NAD^+ in the presence of LDH to pyruvate. The culture media were transferred to 96-well plate and incubated with 1 mg/ml β-NAD^+ in pyruvate substrate solution at 37° C. for 30 min. […] The changes in absorbance were determined at 450 nm using a spectrophotometric microplate reader.

peroxynitrite = assay: Intracellular peroxynitrite formation (DHR123 fluorescence); format: cell-based, Rat; settings: 25 μM Aβ25-35, 36 h; L-ergothioneine present in the media
Procedure: To monitor intracellular formation of peroxynitrite, the fluorescent probe DHR123 was used. DHR123 is lipophilic and readily diffuses across cell membranes. Upon oxidation of DHR to fluorescent rhodamine, one of the two covalent amino groups tautomerizes to a changed imino, effectively trapping rhodamine within cells. DHR is not oxidized by nitric oxide (NO) but peroxynitrite effectively oxidizes it. After treatment with Aβ25-35 (25 μM) for 36 h in the presence or absence of L-ergothioneine, cells (1×10^4 cells/1 ml in 4-well chamber slide) were rinsed with saline A, and 10 μM DHR in saline A containing 5% fetal bovine serum was loaded. After 20 min incubation at 37 C, cells were examined under a confocal microscope equipped with an argon laser (488 nm; 200 mW). To quntitate peroxynitrite generation in response to Aβ25-35, total peroxynitrite production (basal+incease) was divided by basal peroxynitrite generation. Changes in fluorescence intensity are expressed as a percentage of the control.

PC12 cells [7] = assay: Lipid peroxidation (MDA, BIOXYTECH LPO-586); format: cell-based, Rat; settings: Aβ25-35-treated PC12 cells; pretreatment for 30 min
Procedure: The extent of lipid peroxidation in PC12 cells treated with Aβ25-35 was assessed using the commercially available calorimetric assay kit BIOXYTECH LPO-586 (OXIS Research, Portland, Oreg.). After exposure to 50 μM Aβ25-35 in the presence or absence of L-ergothioneine at 37° C. for 24 h, PC12 cells were harvested and homogenized in 20 mM Tris-HCl buffer (pH 7.4), containing 0.5 mM butylated hydroxytoluene to prevent sample oxidation. After centrifugation, 3.25 volumes of diluted R1 reagent (10.3 mM N-methyl-2-phenylindole in acetonitrile) was added to the supernatant, followed by gentle vortex mixing following the addition of 0.75 ml of 37% (v/v) HCl, the mixtures were incubated at 45° C. for 60 min. After cooling and centrifugation, the absorbance of the clear supernatant was read at 590 nm. The protein concentration was determined using the BCA protein assay kit.

PC12 cells [8] = assay: Cell death induced by peroxynitrite generating SIN-1 (MTT); format: cell-based, Rat; settings: MTT reduction assay
Procedure: The MTT assay is a sensitive measurement of the normal metabolic status of cells, particularly that of mitochondria, which reflects early cellular redox changes. After incubation, cells were treated with the MTT solution (final concentration, 1 mg/ml) for 2 h. The dark blue formazan crystals formed in intact cells were dissolved in DMSO, and absorbance at 570 nm was measured with a microplate reader. Results were expressed as the percentage (%) of MTT reduction, assuming that the absorbance of control cells was 100%.

## C[N+](C)(C)[C@@H](Cc1c[nH]c(=S)[nH]1)C(=O)[O-] [L-ergothioneine, 2-mercaptohistidine trimethylbetaine]
[1]
  L-Ergothioneine Concentration (mg/100 ml blood): 1-10 mg/100 ml blood
[2]
  L-Ergothioneine Concentration (mg/100 ml blood): 1-6 mg/100 ml blood
[3]
  L-Ergothioneine Concentration (mg/100 ml blood): 0.5-2 mg/100 ml blood
[4]
  loss of striatal dopamine content: markedly reduced the loss
[5]
  L-Ergothioneine Concentration (mg/100 ml blood): 2-10 mg/100 ml blood
PC12 cells [6]
  LDH release: reduce the LDH release
peroxynitrite
  intracellular peroxynitrite formation: significantly reduced
PC12 cells [7]
  lipid peroxidation: concentration dependent inhibition
PC12 cells [8]
  cytotoxicity induced by the peroxynitrite releasing compound SIN-1: selectively protected

— patent publication US20080107603A1, “Neuroprotectant methods, compositions, and screening methods thereof” (priority 2002, published 2008)
